Laboratory results from patent publication EP0425968A2, “Novel multiple layer transdermal drug administration system” (G.D. Searle & Co., priority 1989, dated 1991).

Columns and labels:
[1] = Figure 1; against prior art agents such as Azone® and isopropyl alcohol (IPA)
[2] = use for preterm labor; cited from earlier work
[3] = Serum concentration time profile and pharmacokinetics after transdermal pad administration; format: in vivo, rhesus monkeys; details: rhesus monkey, read-out: AUC Area Under the Curve after transdermal administration
Experimental: Serum concentration time profiles after transdermal pad administration. After overnight fasting, on the day of the experiment, monkeys were restrained in chairs and the chest areas were clipped to remove hair, avoiding any injury to the skin tissue. Skin surface was wiped with isopropyl alcohol swab and a 4 square centimeter portion of the pad was then applied to the chest area for 24 hours and was removed as described previously. Following the pad application, blood samples were removed at 0.00, 0.5, 1.00, 1.50, 3.00, 5.00, 7.00, 12.00, 24.00, 31.00, and 48.00 hours, centrifuged to separate serum and stored at -20 °C till the analysis.
Analysis of serum samples. Serum albuterol and internal standard bamethan sulphate were extracted into chloroform to remove polar interfering substances and reextracted in to the aqueous phase to eliminate nonpolar materials. The aqueous extracts were analyzed by an HPLC-Fluorescence method.

in vivo = assay: in vivo; parameters: species or system rhesus monkeys; details: female, rhesus monkey, iv, 0.05 mg, AUC Area Under the Curve after intravenous administration
Experimental: Serum concentration time profiles after intravenous administration: Four female rhesus monkeys, #388, #391, #423, and #430, were used in a cross over design for IV and pad bioavailability experiments. From each monkey, 7 ml of blood sample was removed on the previous day of the experiment, centrifuged to separate serum, and stored at -20°C till the analysis. This serum sample was used to make blanks and standards. […] The serum was separated from blood via centrifugation and stored at -20 °C till analysis.
Analysis of serum samples. […] The aqueous extracts were analyzed by an HPLC-Fluorescence method.

SMILES | effect of adjuvant agent on the flux of albuterol [1] | plasma levels needed for uterine relaxation [2] [nanograms per milliliter] | AUC ([3]; Monkey #423, Transdermal dose 0.77 mg.Kg⁻¹) [ng·h/mL] | AUC ([3]; topical or ocular, Monkey #388, Transdermal dose 0.38 mg.Kg⁻¹) [ng·h/mL] | AUC ([3]; topical or ocular, Monkey #391, Transdermal dose 0.39 mg.Kg⁻¹) [ng·h/mL] | AUC ([3]; topical or ocular, Monkey #430, Transdermal dose 0.72 mg.Kg⁻¹) [ng·h/mL] | AUC (in vivo) [ng·h/mL]
CCO [ethanol] | most effective | – | – | – | – | – | –
CC(C)(C)NCC(O)c1ccc(O)c(CO)c1 (stereo not shown) [albuterol] | – | 8 to 33 | 1530 | 712 | 777 | 1260 | 70.7
